Consider one compound from PMC11509018, “Evaluation of the Role of Tanshinone I in an In Vitro System of Charcot-Marie-Tooth Disease Type 2N” (International Journal of Molecular Sciences, 2024).

Test [1] has as its target T1, AlaRS^N71Y (Homo sapiens, UniProt P49588, N71Y).
T1 construct: made in house; host or cells: E. coli BL21 (DE3), pET-21a
T1 sequence (P49588 1-968 N71Y): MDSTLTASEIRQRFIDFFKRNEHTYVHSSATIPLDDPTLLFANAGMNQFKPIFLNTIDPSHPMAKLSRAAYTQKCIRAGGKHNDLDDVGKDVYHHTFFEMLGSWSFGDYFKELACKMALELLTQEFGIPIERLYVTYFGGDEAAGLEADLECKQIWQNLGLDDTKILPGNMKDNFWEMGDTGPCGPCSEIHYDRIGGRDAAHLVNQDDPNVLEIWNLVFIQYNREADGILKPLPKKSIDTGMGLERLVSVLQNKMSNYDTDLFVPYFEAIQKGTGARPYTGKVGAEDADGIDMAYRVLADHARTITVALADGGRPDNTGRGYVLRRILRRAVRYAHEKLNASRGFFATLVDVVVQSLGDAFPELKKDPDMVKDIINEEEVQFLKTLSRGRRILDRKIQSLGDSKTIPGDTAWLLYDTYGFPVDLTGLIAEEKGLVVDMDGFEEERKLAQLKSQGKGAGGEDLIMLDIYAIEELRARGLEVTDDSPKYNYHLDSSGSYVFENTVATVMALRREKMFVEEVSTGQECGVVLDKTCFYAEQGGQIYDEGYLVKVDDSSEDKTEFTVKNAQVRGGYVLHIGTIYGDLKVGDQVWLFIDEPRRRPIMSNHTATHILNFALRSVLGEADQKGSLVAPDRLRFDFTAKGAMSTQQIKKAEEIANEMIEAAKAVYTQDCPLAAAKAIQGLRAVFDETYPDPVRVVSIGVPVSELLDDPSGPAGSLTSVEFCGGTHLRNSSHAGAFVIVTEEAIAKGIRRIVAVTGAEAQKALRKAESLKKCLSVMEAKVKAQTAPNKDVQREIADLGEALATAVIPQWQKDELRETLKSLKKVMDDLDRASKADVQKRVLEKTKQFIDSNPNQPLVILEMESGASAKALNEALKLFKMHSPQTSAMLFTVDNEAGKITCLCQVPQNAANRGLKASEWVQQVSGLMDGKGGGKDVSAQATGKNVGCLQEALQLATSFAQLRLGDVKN
Briefly: Biolayer interferometry (BLI). The class given is binding. The note with it: immobilized AlaRS^N71Y, mean ± SD, triplicate. As for the experimental part:
(§1) Furthermore, we examined the interaction of Tanshinone I with additional AlaRS CMT mutants capable of binding to Nrp1 and causing conformational changes by BLI and proteolysis assays on additional related mutants. […] To further quantify the binding of small molecules to mutant proteins, binding experiments with AlaRS^R329H proteins and small molecules were conducted using an Octet R8 system (ForteBio, Fremont, CA, USA). Purified His-tagged AlaRS^R329H proteins (500 μg/mL) were captured on Ni-NTA biosensors (ForteBio, Fremont, CA, USA), achieving a saturation response of 4–5 nm after 300 s. The biosensors were then transferred to Octet buffer (PBS with 0.01% Tween 20) for 180 s to remove loosely bound, nonspecific proteins and to establish a stable baseline. Following this, the sensors were immersed in diluted Tanshinone I (2.5–100 μM in assay buffer) for 120 s to record the association signal, and then transferred back into Octet buffer to monitor the dissociation signal for 120 s. Reference wells containing buffer instead of Tanshinone I were included to correct for baseline shifts. Additionally, a parallel set of Ni-NTA sensors in buffer served as negative reference controls to account for nonspecific binding of the compounds to the biosensor surface. The data were processed using a double reference subtraction protocol to eliminate nonspecific signals, background noise, and signal drifts caused by biosensor variability. All assays were performed in 96-well black plates with a total volume of 200 μL per well at 30 °C. Data analysis, including correction and curve fitting, was carried out using Octet® Analysis Studio 12.2.2.26. The experiment was repeated three times.
(In general: In BLI a coated tip is dipped into the sample, and binding shifts an interference pattern.)

The target of test [2] is T2, AlaRS^G102R (Homo sapiens, UniProt P49588, G102R).
T2 construct: made in house; host or cells: E. coli BL21 (DE3), pET-21a
T2 sequence (P49588 1-968 G102R): T1 sequence (P49588 1-968 N71Y) with Y71N, G102R
Nature of the test: Biolayer interferometry (BLI). The note with it: immobilized AlaRS^G102R, mean ± SD, triplicate. The class given is binding. The protocol: as §1

Substitutions are numbered along the chain they refer to.

The term Kd denotes a measure of binding affinity in units of concentration. Low values mean tighter binding, high ones weaker binding.

For `Cc1coc2c1C(=O)C(=O)c1c-2ccc2c(C)cccc12` [Tanshinone I], the Kd in test [1] is 37.8 ± 6.2 µM; in test [2], 31.2 ± 11.9 µM.
